In experiment [1] the test system is HIV pseudotyped virus (NL4-3 provirus), M184V. The class given is cell-based. To be noted: PSV assay; U373 cells expressing human CD4 and CXCR4 or CCR5; luciferase signal after 3 days of culture.
The subject of experiment [2] is HIV pseudotyped virus (NL4-3 provirus), WT. The experiment can be described thus: PSV assay (pseudotyped virus assay), WT. To be noted: U373 cells expressing human CD4 and CXCR4 or CCR5, luciferase signal after 3 days of culture.
Description: A pseudotyped virus assay (PSV) was used to assess the potency of the HIV inhibitor. Replication defective virus was produced by co-transfection of a plasmid containing an NL4-3 provirus [containing a mutation in the envelope open reading frame (ORF) and a luciferase reporter gene replacing the nef ORF] and a CMV-promoter expression plasmid containing an ORF for various HIV gp160 envelope clones. The harvested virus was stored at −80 C in small aliquots and the titer of the virus measured to produce a robust signal for antiviral assays.
The PSV assay was performed by using U373 cells stably transformed to express human CD4, the primary receptor for HIV entry and either human CXCR4 or human CCR5 which are the co-receptors required for HIV entry as target cells for infection. […] This dose-range was applied to U373 cells and the pre-made pseudotyped virus added. The amount of luciferase signal produced after 3 days of culture was used to reflect the level of pseudotyped virus infection. An IC50, or the concentration of inhibitor required to reduce PSV infection by 50% from the infection containing no inhibitor was calculated. […] IC50 values were determined from a 10 point dose response curve using 3-4-fold serial dilution for each compound, which spans a concentration range >1000 fold.
Setting [3] is: Human immunodeficiency virus 1, NL43, in Homo sapiens, 72 h, read-out: WT IC50 (μM), PSV assay.

Like-named read-outs stand apart in the source and are kept apart here.

`C#C[C@]1(CO)O[C@@H](n2cnc3c(N)nc(F)nc32)C[C@@H]1OC(=O)OC(COC(=O)CCCCCCCC)COC(=O)CCCCCCCC` [Example 30, 2-(((((2R,3S,5R)-5-(6-amino-2-fluoro-9H-purin-9-yl)-2-ethynyl-2-(hydroxymethyl)tetrahydrofuran-3-yl)oxy)carbonyl)oxy)propane-1,3-diyl dinonanoate]: the IC50 in experiment [1] is 29.3 nM; in experiment [2] (setting [3]), 0.0077 µM.
Turning to `C#C[C@]1(COC(=O)NC(C)(C)C)O[C@@H](n2cnc3c(N)nc(F)nc32)C[C@@H]1O` [Example 8, ((2R,3S,5R)-5-(6-amino-2-fluoro-9H-purin-9-yl)-2-ethynyl-3-hydroxytetrahydrofuran-2-yl)methyl tert-butylcarbamate], the IC50 was determined as 1130 nM in experiment [1] and 0.142 µM in experiment [2] (setting [3]).
On the same counts, the results for `C#C[C@]1(CO)O[C@@H](n2cnc3c(NC(=O)OC(COC(=O)CCCC)COC(=O)CCCC)nc(F)nc32)C[C@@H]1O` [Example 32, 2-(((9-((2R,4S,5R)-5-ethynyl-4-hydroxy-5-(hydroxymethyl)tetrahydrofuran-2-yl)-2-fluoro-9H-purin-6-yl)carbamoyl)oxy)propane-1,3-diyl dipentanoate] are 26.9 nM and 0.0075 µM.
On to `C#C[C@]1(CO)O[C@@H](n2cnc3c(NC(=O)OC(COCCCCC)COC(=O)CCCC)nc(F)nc32)C[C@@H]1O` (single isomer, unassigned) [Example 38], for which the IC50 in experiment [1] was 23.4 nM; in experiment [2] (read-out: WT IC50, PSV assay) it was 0.007 µM.
On to `C#C[C@]1(COC(=O)NCCCCCCCCCCCCCCCCCC)O[C@@H](n2cnc3c(N)nc(F)nc32)C[C@@H]1O` [Example 1, ((2R,3S,5R)-5-(6-amino-2-fluoro-9H-purin-9-yl)-2-ethynyl-3-hydroxytetrahydrofuran-2-yl)methyl octadecylcarbamate], for which the IC50 in experiment [1] is above 25000 nM; in experiment [2] (setting [3]), above 25 µM.
In the case of `C#C[C@]1(CO)O[C@@H](n2cnc3c(N)nc(F)nc32)C[C@@H]1OC(=O)OC(COC(=O)CCCC)COC(=O)CCCC` [Example 29, 2-(((((2R,3S,5R)-5-(6-amino-2-fluoro-9H-purin-9-yl)-2-ethynyl-2-(hydroxymethyl)tetrahydrofuran-3-yl)oxy)carbonyl)oxy)propane-1,3-diyl dipentanoate], the results for the IC50 in experiment [1] and in experiment [2] (setting [3]) were 28.3 nM and 0.0077 µM, respectively.
In the same order, the values of `C#C[C@]1(CO)O[C@@H](n2cnc3c(NC(=O)OC(COCCCCCCCCC)COC(=O)CCCCCCCC)nc(F)nc32)C[C@@H]1O` (single isomer, unassigned) [Example 35] are 33.1 nM and 0.0112 µM.
`C#C[C@]1(COC(=O)OC(COC(=O)CCCCCCCC)COC(=O)CCCCCCCC)O[C@@H](n2cnc3c(N)nc(F)nc32)C[C@@H]1O` [Example 9, 2-(((((2R,3S,5R)-5-(6-amino-2-fluoro-9H-purin-9-yl)-2-ethynyl-3-hydroxytetrahydrofuran-2-yl)methoxy)carbonyl)oxy)propane-1,3-diyl dinonanoate]: the IC50 came out at 22.1 nM in experiment [1] and 0.0049 µM in experiment [2] (setting [3]).
In the same order, the values of `C#C[C@]1(CO)O[C@@H](n2cnc3c(NC(=O)OC4COC(=O)CCCCCCCCCCCC(=O)OC4)nc(F)nc32)C[C@@H]1O` [Example 34, 6,18-dioxo-1,5-dioxacyclooctadecan-3-yl (9-((2R,4S,5R)-5-ethynyl-4-hydroxy-5-(hydroxymethyl)tetrahydrofuran-2-yl)-2-fluoro-9H-purin-6-yl)carbamate] are 67.8 nM and 0.0132 µM.
In the same order, the values of `C#C[C@]1(CO)O[C@@H](n2cnc3c(N)nc(F)nc32)C[C@@H]1OC(=O)NCCCCCCCC` [Example 17, (2R,3S,5R)-5-(6-amino-2-fluoro-9H-purin-9-yl)-2-ethynyl-2-(hydroxymethyl)tetrahydrofuran-3-yl octylcarbamate] are above 15000 nM and above 15 µM.
For the compound `C#C[C@]1(COC(=O)NC)O[C@@H](n2cnc3c(N)nc(F)nc32)C[C@@H]1O` [Example 5, ((2R,3S,5R)-5-(6-amino-2-fluoro-9H-purin-9-yl)-2-ethynyl-3-hydroxytetrahydrofuran-2-yl)methyl methylcarbamate], the figures for the IC50 in experiment [1] and in experiment [2] (setting [3]) were above 25000 nM and 15.4 µM, respectively.
In the same order, the values of `C#C[C@]1(CO)O[C@@H](n2cnc3c(N)nc(F)nc32)C[C@@H]1OC(=O)NCCCCC` [Example 19, (2R,3S,5R)-5-(6-amino-2-fluoro-9H-purin-9-yl)-2-ethynyl-2-(hydroxymethyl)tetrahydrofuran-3-yl pentylcarbamate] are 9440 nM and 1.77 µM.
In the same order, the values of `C#C[C@]1(CO)O[C@@H](n2cnc3c(N)nc(F)nc32)C[C@@H]1OC(=O)N(CC)CC` [Example 21, (2R,3S,5R)-5-(6-amino-2-fluoro-9H-purin-9-yl)-2-ethynyl-2-(hydroxymethyl)tetrahydrofuran-3-yl diethylcarbamate] are above 25000 nM and 14.7 µM.

The term IC50 denotes the midpoint of a concentration-inhibition curve.

The values are drawn from patent publication US20220298160A1, “COMPOUNDS USEFUL IN HIV THERAPY” (priority 2019, published 2022).
